Data reported in patent US6673938B1, “Substituted pyridine herbicides” (Syngenta Participations AG, priority 1998, dated 2004).

How the values were obtained:
[1] = test system: Monocotyledonous and dicotyledonous test plants; assay: Herbicidal action before emergence of the plants (pre-emergence action); format: in vivo; settings: 2000 g/ha, evaluated after 3 weeks, nine-step scale
Method: Monocotyledonous and dicotyledonous test plants are sown in standard soil in plastic pots. Immediately after sowing, the test substances as aqueous suspensions (prepared with a 25% wettable powder (Example F3, b) in accordance with WO 97/34485) or as emulsions (prepared with a 25% emulsion concentrate (Example F1, c)) are sprayed on at a rate of 2 kg of a.i./ha or 250 g of a.i./ha (500 l of water/ha). The test plants are then grown in the greenhouse under optimal conditions. After a test period of 3 weeks, the experiment is evaluated with reference to a nine-step scale (1=complete damage, 9=no effect). Score figures of 1 to 4 (in particular 1 to 3) mean a good to very good herbicidal action.

[2] = test system: Monocotyledonous and dicotyledonous test plants; assay: Post-emergence herbicidal action; format: in vivo; settings: 2000 g/ha, sprayed in 4- to 6-leaf stage, evaluated after approximately 18 days, nine-step scale
In short: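 Scoring uses a 1–9 scale (1 complete damage, 9 no effect), read roughly 18 days post-application. Compounds were applied post-emergence at 4–6 leaves, as aqueous suspension (25% wettable powder) or emulsion (25% emulsion concentrate), at 250 g or 2 kg a.i./ha in 500 l water/ha.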

Row | SMILES | pre-emergence action, Cyperus [1] | pre-emergence action, Ipomoea [1] | pre-emergence action, Setaria [1] | pre-emergence action, Sinapis [1] | pre-emergence action, Solanum [1] | pre-emergence action, Stellaria [1] | Post-emergence action, Ipomoea [2] | Post-emergence action, Lolium [2] | Post-emergence action, Setaria [2] | Post-emergence action, Sinapis [2] | Post-emergence action, Solanum [2] | Post-emergence action, Stellaria [2]
1 | Cc1nc(C(F)(F)F)ccc1C(=O)C1=C(O)C(C)(S(C)(=O)=O)CCC1=O (stereo not drawn) [Compound A2-B31] | 2 | 3 | 4 | 2 | 1 | 2 | 2 | 2 | 2 | 1 | 2 | 2
2 | Cc1nc(C(F)(F)C(F)(F)C(F)(F)F)ccc1C(=O)C1=C(O)C(C)(C)CCC1=O [Compound A64-B24] | 4 | 4 | 2 | 2 | 1 | 2 | 2 | 2 | 4 | 1 | 2 | 2
3 | Cc1nc(C(F)(F)F)ccc1C(=O)C1=C(O)CCC2(CCC2)C1=O [Compound A2-C146] | 1 | 2 | 2 | 2 | 1 | 2 | 1 | 2 | 2 | 1 | 2 | 2
4 | Cc1nc(C(F)(F)F)ccc1C(=O)C1=C(O)C(C)(C)C(C)CC1=O (stereo not drawn) [Compound A2-B156] | 1 | 2 | 1 | 2 | 1 | 2 | 1 | 2 | 2 | 1 | 2 | 2
5 | COCCc1nc(C(F)(F)F)ccc1C(=O)C1=C(O)CCCC1=O [Compound A9-B1] | 2 | 1 | 2 | 1 | 1 | 2 | 2 | 4 | 2 | 2 | 2 | 2
6 | Cc1nc(C(F)(F)F)ccc1C(=O)C1=C(O)CCC2(CC2)C1=O [Compound A2-C1] | 2 | 3 | 1 | 2 | 1 | 2 | 3 | 2 | 2 | 1 | 2 | 2
7 | Cc1nc(C(F)(F)F)ccc1C(=O)C1=C(O)C(C)C(C)(C)CC1=O (stereo not drawn) [Compound A2-B1095] | 3 | 4 | 2 | 2 | 1 | 2 | 1 | 2 | 4 | 1 | 2 | 2
8 | C#CCC1CC(C)(C)C(=O)C(C(=O)c2ccc(C(F)(F)F)nc2C)=C1O (stereo not drawn) [Compound A2-B1082] | 2 | 2 | 2 | 2 | 1 | 2 | 1 | 2 | 2 | 1 | 1 | 2
9 | COCc1nc(C(F)(F)F)ccc1C(=O)C1=C(O)C(C)(C(=O)OC)CCC1=O (stereo not drawn) [Compound A8-B34] | 2 | 3 | 2 | 2 | 2 | 2 | 2 | 2 | 2 | 2 | 2 | 2
10 | Cc1nc(C(F)(F)Cl)ccc1C(=O)C1=C(O)CCCC1=O [Compound A94-B1] | 1 | 2 | 2 | 1 | 1 | 2 | 1 | 2 | 2 | 1 | 1 | 1
11 | COC(=O)C1(C)CCC(=O)C(C(=O)c2ccc(C(F)(F)F)nc2C)=C1O (stereo not drawn) [Compound A2-B34] | 1 | 3 | 2 | 2 | 1 | 2 | 1 | 3 | 2 | 1 | 1 | 2
12 | CCC1(C)CCC(=O)C(C(=O)c2ccc(C(F)(F)F)nc2C)=C1O (stereo not drawn) [Compound A2-B25] | 2 | 3 | 2 | 2 | 1 | 2 | 1 | 2 | 2 | 2 | 1 | 2
13 | Cc1nc(C(F)(F)F)ccc1C(=O)C1=C(O)C(C)(C(C)C)CC(C)(C)C1=O (stereo not drawn) [Compound A2-B93] | 2 | 4 | 2 | 2 | 1 | 2 | 1 | 2 | 2 | 1 | 2 | 2
14 | Cc1cc(C(=O)C2=C(O)CCCC2=O)c(C)nc1C(F)(F)F [Compound A184-B1] | 2 | 4 | 2 | 2 | 1 | 2 | 1 | 3 | 2 | 1 | 2 | 2
15 | CSC1(C)CC(C)(C)C(=O)C(C(=O)c2ccc(C(F)(F)F)nc2C)=C1O (stereo not drawn) [Compound A2-B95] | 2 | 4 | 2 | 2 | 1 | 2 | 1 | 2 | 2 | 1 | 2 | 2
16 | Cc1nc(C(F)(F)F)ccc1C(=O)C1=C(O)C(C)(C)CC(C)(C)C1=O [Compound A2-B90] | 1 | 1 | 1 | 1 | 1 | 1 | 1 | 2 | 2 | 1 | 2 | 2
